{"source": "paper PMC5218480", "about": "(PLoS ONE, 2017)", "system": "MV-4-11 cells", "assay": "Gene expression microarray analysis (Affymetrix PrimeView) and GSEA", "type": "cell-based, human", "set-up": "RFU PODN (11730768_x_at) / Fold change /veh PODN (11730768_x_at) / RFU LINC00158 (11744669_a_at) / Fold change /veh LINC00158 (11744669_a_at) / RFU DUSP10 (11751237_a_at) / Fold change /veh DUSP10 (11751237_a_at) / RFU ID3 (11757404_x_at) / Fold change /veh ID3 (11757404_x_at) / RFU PLEKHG5 (11737974_s_at) / Fold change /veh PLEKHG5 (11737974_s_at) / RFU LRRC4B (11730491_at) / Fold change /veh LRRC4B (11730491_at) / RFU GIMAP4 (11747438_a_at) / Fold change /veh GIMAP4 (11747438_a_at) / RFU KRT8 (11758183_x_at) / Fold change /veh KRT8 (11758183_x_at) / RFU CNN1 (11734310_a_at) / Fold change /veh CNN1 (11734310_a_at) / RFU VPS37D (11726825_at) / Fold change /veh VPS37D (11726825_at) / RFU C10orf10 (11716522_x_at) / Fold change /veh C10orf10 (11716522_x_at) / RFU KIR2DL2 /// KIR2DL4 /// KIR2DL5A /// KIR2DL5B /// KIR2DS1 /// KIR2DS2 /// KIR2DS3 /// KIR2DS4 /// KIR3DL3 /// KIR3DL3 /// KIR3DS1 (11738374_at) / Fold change /veh KIR2DL2 /// KIR2DL4 /// KIR2DL5A /// KIR2DL5B /// KIR2DS1 /// KIR2DS2 /// KIR2DS3 /// KIR2DS4 /// KIR3DL3 /// KIR3DL3 /// KIR3DS1 (11738374_at) / RFU C1QL1 (11718748_at) / Fold change /veh C1QL1 (11718748_at) / RFU TMPRSS4 (11747572_a_at) / Fold change /veh TMPRSS4 (11747572_a_at) / RFU HAMP (11756126_x_at) / Fold change /veh HAMP (11756126_x_at) / RFU RNFT2 (11725882_a_at) / Fold change /veh RNFT2 (11725882_a_at) / RFU NR4A2 (11747474_a_at) / Fold change /veh NR4A2 (11747474_a_at) / RFU ABCC12 (11746883_a_at) / Fold change /veh ABCC12 (11746883_a_at) / RFU TMEM136 (11760407_x_at) / Fold change /veh TMEM136 (11760407_x_at) / RFU CLDN22 /// WWC2 (11732394_at) / Fold change /veh CLDN22 /// WWC2 (11732394_at) / RFU HLA-DPB1 (11760878_x_at) / Fold change /veh HLA-DPB1 (11760878_x_at) / RFU SPINT1 (11716480_a_at) / Fold change /veh SPINT1 (11716480_a_at) / RFU GAP43 (11754022_s_at) / Fold change /veh GAP43 (11754022_s_at) / RFU A4GNT (11735810_at) / Fold change /veh A4GNT (11735810_at) / RFU PRB3 (11715151_x_at) / Fold change /veh PRB3 (11715151_x_at) / RFU TUBB4B (11761932_at) / Fold change /veh TUBB4B (11761932_at) / RFU CAPN14 (11732068_a_at) / Fold change /veh CAPN14 (11732068_a_at) / RFU TMCC2 (11721928_a_at) / Fold change /veh TMCC2 (11721928_a_at) / RFU IRGQ (11745062_a_at) / Fold change /veh IRGQ (11745062_a_at) / RFU FAM174B (11720279_a_at) / Fold change /veh FAM174B (11720279_a_at) / RFU TMPRSS4 (11748680_a_at) / Fold change /veh TMPRSS4 (11748680_a_at) / RFU FAM212B (11763350_a_at) / Fold change /veh FAM212B (11763350_a_at) / RFU PLEKHG5 (11743358_a_at) / Fold change /veh PLEKHG5 (11743358_a_at) / RFU ZSCAN30 (11745921_a_at) / Fold change /veh ZSCAN30 (11745921_a_at) / RFU CMKLR1 (11741424_a_at) / Fold change /veh CMKLR1 (11741424_a_at) / RFU LOC101060620 /// MAPK8IP1 (11723275_at) / Fold change /veh LOC101060620 /// MAPK8IP1 (11723275_at) / RFU SPTSSB (11747773_x_at) / Fold change /veh SPTSSB (11747773_x_at) / RFU PRSS12 (11739890_at) / Fold change /veh PRSS12 (11739890_at) / RFU BIN1 (11741810_x_at) / Fold change /veh BIN1 (11741810_x_at) / RFU WNT11 (11732464_a_at) / Fold change /veh WNT11 (11732464_a_at) / RFU C10orf10 (11716521_a_at) / Fold change /veh C10orf10 (11716521_a_at) / RFU C5orf56 (11738089_at) / Fold change /veh C5orf56 (11738089_at) / RFU CYB561 (11721691_x_at) / Fold change /veh CYB561 (11721691_x_at) / RFU ANKRD19P (11752326_a_at) / Fold change /veh ANKRD19P (11752326_a_at) / RFU OR2T12 /// OR2T33 /// OR2T8 (11738714_s_at) / Fold change /veh OR2T12 /// OR2T33 /// OR2T8 (11738714_s_at) / RFU VCAN (11748164_a_at) / Fold change /veh VCAN (11748164_a_at) / RFU JSRP1 (11732532_at) / Fold change /veh JSRP1 (11732532_at) / RFU KRTAP10-11 (11738290_x_at) / Fold change /veh KRTAP10-11 (11738290_x_at) / RFU MYO3A (11730013_a_at) / Fold change /veh MYO3A (11730013_a_at) / RFU EBF3 (11725865_a_at) / Fold change /veh EBF3 (11725865_a_at) / RFU CAMK2N1 (11719241_x_at) / Fold change /veh CAMK2N1 (11719241_x_at) / RFU C5orf56 (11738088_a_at) / Fold change /veh C5orf56 (11738088_a_at) / RFU OLFML3 (11715873_a_at) / Fold change /veh OLFML3 (11715873_a_at) / RFU LOC100653217 /// NTM (11731650_a_at) / Fold change /veh LOC100653217 /// NTM (11731650_a_at) / RFU MAPK11 (11762145_a_at) / Fold change /veh MAPK11 (11762145_a_at) / RFU FIZ1 (11724087_x_at) / Fold change /veh FIZ1 (11724087_x_at) / RFU OASL (11726364_x_at) / Fold change /veh OASL (11726364_x_at) / RFU SOX15 (11748057_x_at) / Fold change /veh SOX15 (11748057_x_at) / RFU CD79A (11719716_a_at) / Fold change /veh CD79A (11719716_a_at) / RFU HIST1H1D (11736915_at) / Fold change /veh HIST1H1D (11736915_at) / RFU CASKIN2 (11723855_a_at) / Fold change /veh CASKIN2 (11723855_a_at) / RFU LOC730098 (11760151_x_at) / Fold change /veh LOC730098 (11760151_x_at) / RFU OR4N2 (11742367_at) / Fold change /veh OR4N2 (11742367_at) / RFU PRRT2 (11749266_a_at) / Fold change /veh PRRT2 (11749266_a_at) / RFU SNX32 (11753110_a_at) / Fold change /veh SNX32 (11753110_a_at) / RFU CDHR5 (11726645_a_at) / Fold change /veh CDHR5 (11726645_a_at) / RFU RCAN1 (11760418_a_at) / Fold change /veh RCAN1 (11760418_a_at) / RFU FAM167A (11723789_a_at) / Fold change /veh FAM167A (11723789_a_at) / RFU FAM26E (11764081_at) / Fold change /veh FAM26E (11764081_at) / RFU ISYNA1 (11749810_s_at) / Fold change /veh ISYNA1 (11749810_s_at) / RFU ACY1 (11761880_at) / Fold change /veh ACY1 (11761880_at) / RFU 11764098_at / Fold change /veh 11764098_at / RFU SAMD14 (11745864_x_at) / Fold change /veh SAMD14 (11745864_x_at) / RFU NPB (11741838_a_at) / Fold change /veh NPB (11741838_a_at) / RFU TMPRSS6 (11731388_a_at) / Fold change /veh TMPRSS6 (11731388_a_at) / RFU KRTAP10-2 (11738614_at) / Fold change /veh KRTAP10-2 (11738614_at) / RFU ARHGAP8 /// PRR5-ARHGAP8 (11727945_x_at) / Fold change /veh ARHGAP8 /// PRR5-ARHGAP8 (11727945_x_at) / RFU KRTAP5-7 /// NADSYN1 (11734609_at) / Fold change /veh KRTAP5-7 /// NADSYN1 (11734609_at) / RFU RASL12 (11751679_a_at) / Fold change /veh RASL12 (11751679_a_at) / RFU CDKN2B (11736163_a_at) / Fold change /veh CDKN2B (11736163_a_at) / RFU PRF1 (11729649_at) / Fold change /veh PRF1 (11729649_at) / RFU, ZNF638 /// ZNF638-IT1 / Fold change vs veh, ZNF638 /// ZNF638-IT1 / RFU, PANK3 / Fold change vs veh, PANK3 / RFU, SH3YL1 / Fold change vs veh, SH3YL1 / RFU, ZEB2 / Fold change vs veh, ZEB2 / RFU, NRIP1 / Fold change vs veh, NRIP1 / RFU, PTTG1IP / Fold change vs veh, PTTG1IP / RFU, CAPN2 / Fold change vs veh, CAPN2 / RFU, MED14 / Fold change vs veh, MED14 / RFU, SNORA58 / Fold change vs veh, SNORA58 / RFU, C1orf63 / Fold change vs veh, C1orf63 / RFU, LRRFIP1 / Fold change vs veh, LRRFIP1 / RFU, NDUFAF7 / Fold change vs veh, NDUFAF7 / RFU, SLC12A2 / Fold change vs veh, SLC12A2 / RFU, IBTK / Fold change vs veh, IBTK / RFU, ESF1 / Fold change vs veh, ESF1 / Fold change vs veh, TMEM50B / RFU, TAOK1 / Fold change vs veh, TAOK1 / RFU, ACBD3 / Fold change vs veh, ACBD3 / RFU, TMA16 / Fold change vs veh, TMA16 / RFU, RWDD3 / Fold change vs veh, RWDD3 / RFU, BCAT1 / Fold change vs veh, BCAT1 / RFU, EDEM3 / Fold change vs veh, EDEM3 / RFU, TMEM33 / Fold change vs veh, TMEM33 / RFU, WDR75 / Fold change vs veh, WDR75 / RFU, AHCTF1 / Fold change vs veh, AHCTF1 / RFU, TFRC / Fold change vs veh, TFRC / RFU, ZDHHC17 / Fold change vs veh, ZDHHC17 / RFU, NOM1 / Fold change vs veh, NOM1 / RFU, ARL8B / Fold change vs veh, ARL8B / RFU, ZBTB11 / Fold change vs veh, ZBTB11 / RFU, TAMM41 / Fold change vs veh, TAMM41 / RFU, KIAA1704 /// LOC100996395 / Fold change vs veh, KIAA1704 /// LOC100996395 / RFU, ING1 / Fold change vs veh, ING1 / RFU, TRMT61B / Fold change vs veh, TRMT61B / RFU, FUBP3 / Fold change vs veh, FUBP3 / RFU, TP53 / Fold change vs veh, TP53 / RFU, TNKS2 / Fold change vs veh, TNKS2 / RFU, ZFP14 / Fold change vs veh, ZFP14 / RFU, ACTR2 / Fold change vs veh, ACTR2 / RFU, PPP3R1 / Fold change vs veh, PPP3R1 / RFU, PIK3R1 / Fold change vs veh, PIK3R1 / RFU, HNRNPA1 / Fold change vs veh, HNRNPA1 / RFU, RNF170 / Fold change vs veh, RNF170 / RFU, ZNF28 / Fold change vs veh, ZNF28 / RFU, RNGTT / Fold change vs veh, RNGTT / RFU, OGT / Fold change vs veh, OGT / RFU, BRD1 / Fold change vs veh, BRD1 / RFU, MARS / Fold change vs veh, MARS / RFU, ZNF655 / Fold change vs veh, ZNF655 / RFU, FAHD1 / Fold change vs veh, FAHD1 / RFU, BDP1 / Fold change vs veh, BDP1 / RFU, LRRCC1 / Fold change vs veh, LRRCC1 / RFU, ARID1A / Fold change vs veh, ARID1A / RFU, ZNF146 / Fold change vs veh, ZNF146 / RFU, ZNF330 / Fold change vs veh, ZNF330 / RFU, GPN3 / Fold change vs veh, GPN3 / RFU, C9orf123 / Fold change vs veh, C9orf123 / RFU, N4BP2L2 / Fold change vs veh, N4BP2L2 / RFU, ARFIP1 / Fold change vs veh, ARFIP1 / RFU, FAM179B / Fold change vs veh, FAM179B / RFU, BCL10 / Fold change vs veh, BCL10 / RFU, UHRF1BP1L / Fold change vs veh, UHRF1BP1L / RFU, BET1 / Fold change vs veh, BET1 / RFU, CNOT2 / Fold change vs veh, CNOT2 / RFU, ZNF268 / Fold change vs veh, ZNF268 / Fold change vs veh, ZNF507 / RFU, DGCR2 / Fold change vs veh, DGCR2 / RFU, WDSUB1 / Fold change vs veh, WDSUB1 / Fold change vs veh, HSP90B1 /// MIR3652 / RFU, ADSS / Fold change vs veh, ADSS / RFU, GK / Fold change vs veh, GK / RFU, ZNF148 / Fold change vs veh, ZNF148 / RFU, TAF9 / Fold change vs veh, TAF9 / RFU, SLC1A5 / Fold change vs veh, SLC1A5 / RFU, SLMO2 / Fold change vs veh, SLMO2 / RFU, ABCC4 / Fold change vs veh, ABCC4 / RFU, LOC101060439 /// RAP1B / Fold change vs veh, LOC101060439 /// RAP1B / RFU, RFX7 / Fold change vs veh, RFX7 / RFU, GTPBP10 / Fold change vs veh, GTPBP10 / RFU, CNEP1R1 / Fold change vs veh, CNEP1R1 / RFU, BIVM-ERCC5 /// ERCC5 / Fold change vs veh, BIVM-ERCC5 /// ERCC5 / RFU, ILF3 / Fold change vs veh, ILF3 / RFU 11762660_at / Fold change /veh 11762660_at / RFU VCAN (11757783_s_at) / Fold change /veh VCAN (11757783_s_at) / RFU DDX43 (11728927_at) / Fold change /veh DDX43 (11728927_at) / RFU KRT8 (11758188_x_at) / Fold change /veh KRT8 (11758188_x_at) / RFU NKD1 (11759106_at) / Fold change /veh NKD1 (11759106_at) / RFU SRD5A1 (11742802_a_at) / Fold change /veh SRD5A1 (11742802_a_at) / RFU TPSAB1 /// TPSB2 (11721975_s_at) / Fold change /veh TPSAB1 /// TPSB2 (11721975_s_at) / RFU GSTM3 (11746129_a_at) / Fold change /veh GSTM3 (11746129_a_at) / RFU IL23R (11737362_x_at) / Fold change /veh IL23R (11737362_x_at) / RFU TMEM51 (11727254_a_at) / Fold change /veh TMEM51 (11727254_a_at) / RFU PIWIL2 (11732686_x_at) / Fold change /veh PIWIL2 (11732686_x_at) / RFU ORM1 (11744905_x_at) / Fold change /veh ORM1 (11744905_x_at) / RFU CCDC152 (11743942_at) / Fold change /veh CCDC152 (11743942_at) / RFU ECM1 (11717891_a_at) / Fold change /veh ECM1 (11717891_a_at) / RFU IL23R (11748794_a_at) / Fold change /veh IL23R (11748794_a_at) / RFU TNFAIP8L3 (11732012_x_at) / Fold change /veh TNFAIP8L3 (11732012_x_at) / RFU MBOAT4 (11741988_at) / Fold change /veh MBOAT4 (11741988_at) / RFU 11764193_at / Fold change /veh 11764193_at / RFU TMEM53 (11763286_at) / Fold change /veh TMEM53 (11763286_at) / RFU MAGEB2 (11727129_at) / Fold change /veh MAGEB2 (11727129_at) / RFU TMEM200A (11744735_a_at) / Fold change /veh TMEM200A (11744735_a_at) / RFU CCDC152 (11751479_a_at) / Fold change /veh CCDC152 (11751479_a_at) / RFU FAM211A (11726209_a_at) / Fold change /veh FAM211A (11726209_a_at) / RFU RGS16 (11746705_a_at) / Fold change /veh RGS16 (11746705_a_at) / RFU VCAN (11755009_s_at) / Fold change /veh VCAN (11755009_s_at) / RFU RHOB (11743442_s_at) / Fold change /veh RHOB (11743442_s_at) / RFU RGS16 (11720943_a_at) / Fold change /veh RGS16 (11720943_a_at) / RFU RGS16 (11720944_at) / Fold change /veh RGS16 (11720944_at) / RFU, VPS4B / Fold change vs veh, VPS4B / RFU, CREB1 / Fold change vs veh, CREB1 / RFU, DNAJC13 / Fold change vs veh, DNAJC13 / RFU, GNAQ / Fold change vs veh, GNAQ / RFU, CDK5R1 / Fold change vs veh, CDK5R1 / RFU, ZRANB3 / Fold change vs veh, ZRANB3 / RFU, CUL4A / Fold change vs veh, CUL4A / RFU, CCNY / Fold change vs veh, CCNY / RFU, UFL1 / Fold change vs veh, UFL1 / RFU, COG3 / Fold change vs veh, COG3 / RFU, DIAPH2 / Fold change vs veh, DIAPH2 / RFU, SKA2 / Fold change vs veh, SKA2 / RFU, AFF3 / Fold change vs veh, AFF3 / RFU, LMF1 / Fold change vs veh, LMF1 / RFU, IPO11 / Fold change vs veh, IPO11 / RFU, DFFB / Fold change vs veh, DFFB / RFU, FOXP1 / Fold change vs veh, FOXP1 / RFU, CARD8 / Fold change vs veh, CARD8 / RFU, STRN3 / Fold change vs veh, STRN3 / RFU, ADK / Fold change vs veh, ADK / RFU, RASSF2 / Fold change vs veh, RASSF2 / RFU, WIPF1 / Fold change vs veh, WIPF1 / RFU, LARP1B / Fold change vs veh, LARP1B / RFU, RASA1 / Fold change vs veh, RASA1 / RFU, RB1 / Fold change vs veh, RB1 / RFU, PPFIA1 / Fold change vs veh, PPFIA1 / RFU, MAT2A / Fold change vs veh, MAT2A / RFU, CCT5 / Fold change vs veh, CCT5 / RFU, WDR92 / Fold change vs veh, WDR92 / RFU, CUX1 / Fold change vs veh, CUX1 / RFU, TTC7A / Fold change vs veh, TTC7A / RFU, TMEM135 / Fold change vs veh, TMEM135 / RFU, DEPTOR / Fold change vs veh, DEPTOR / RFU, CPM / Fold change vs veh, CPM / RFU, DNAJB6 / Fold change vs veh, DNAJB6 / RFU, CACNA2D3 / Fold change vs veh, CACNA2D3 / RFU, DTX4 / Fold change vs veh, DTX4 / RFU, TFCP2 / Fold change vs veh, TFCP2 / RFU, GMCL1 /// GMCL1P1 / Fold change vs veh, GMCL1 /// GMCL1P1 / RFU, AEBP2 / Fold change vs veh, AEBP2 / RFU, SNHG1 /// SNORD22 /// SNORD25 /// SNORD26 /// SNORD27 /// SNORD28 /// SNORD29 /// SNORD31 / Fold change vs veh, SNHG1 /// SNORD22 /// SNORD25 /// SNORD26 /// SNORD27 /// SNORD28 /// SNORD29 /// SNORD31 / Fold change (Aza/veh), C12orf56 (ProbeSet 11735607_a_at) / Fold change (ACY-1035/veh), C12orf56 (ProbeSet 11735607_a_at) / Fold change (Aza/veh), FGFR1OP (ProbeSet 11751329_s_at) / Fold change (ACY-1035/veh), FGFR1OP (ProbeSet 11751329_s_at) / Fold change (Aza/veh), VPS36 (ProbeSet 11739960_a_at) / Fold change (ACY-1035/veh), VPS36 (ProbeSet 11739960_a_at) / RFU SYPL1 (11715823_x_at) / Fold change /veh SYPL1 (11715823_x_at) / RFU IGFBP7 (11715501_s_at) / Fold change /veh IGFBP7 (11715501_s_at) / RFU REEP3 (11722064_at) / Fold change /veh REEP3 (11722064_at) / RFU IGLL1 (11728026_x_at) / Fold change /veh IGLL1 (11728026_x_at): dose or concentration left out as unconfirmed", "settings": "MV-4-11 cells, 48 hours", "data": [{"compound": "Nc1ccc(-c2cccs2)cc1NC(=O)c1ccc2c(c1)cc(C1CC1)n2CCN1CCOCC1", "note": "[ACY-1035]", "values": [{"measurement": "Fold change /veh C10orf10 (11716522_x_at)", "result": 1.10}]}]}
